Data published in publication PMC2361661 (British Journal of Cancer, 2005).
Several values for one entry are separate records, joined by “and”; a condition that tells them apart may be missing. Equal values may be shown once. Read-outs that look alike come from different tables or passages of the source.

Legend:
[1] = system: ovarian cancer; settings: relapsed ovarian cancer, cited from earlier work
[2] = target: T1, thymidylate synthase (TS) (Homo sapiens, UniProt P04818); settings: ref Ford et al, 2002, cited from earlier work
T1 construct: endogenous in cells; host or cells: tissues of treated patients (in vivo)
T1 sequence (P04818 2-313 limits assumed): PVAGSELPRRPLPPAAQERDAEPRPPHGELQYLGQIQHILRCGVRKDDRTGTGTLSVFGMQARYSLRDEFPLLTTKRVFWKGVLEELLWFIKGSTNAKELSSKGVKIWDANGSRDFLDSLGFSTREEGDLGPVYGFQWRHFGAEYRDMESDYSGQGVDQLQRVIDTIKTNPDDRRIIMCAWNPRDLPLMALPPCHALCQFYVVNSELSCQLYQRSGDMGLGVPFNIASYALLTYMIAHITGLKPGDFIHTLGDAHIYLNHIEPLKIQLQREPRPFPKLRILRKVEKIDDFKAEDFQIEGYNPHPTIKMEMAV

[3] = design: method as in Plummer et al, 2003; settings: ref Plummer et al, 2003, cited from earlier work; for AUC: mass spectroscopy
[4] = cited from earlier work
[5] = clinical; settings: human, plasma
Method: (§1) Prior to each assay the plasma samples were centrifuged at 3000 g for 5 min × 2, to sediment precipitants that would block pipette tips.
(§2) All dilutions required for the ELISA were performed by Multiprobe II automated liquid handling equipment (Perkin-Elmer, Cambridge, UK). […] Following further incubation and washing steps, the optical absorbance was read and plotted using a four-parameter logistic curve fitted by nonlinear regression as previously described ([Aherne et al, 2001]).
(§3) PK analysis was performed using WinNonlin Software, version 3.2 (Pharsight Corp., CA, USA). […] The following PK parameters were evaluated: maximum plasma concentration (Cmax), area under the plasma concentration–time curve (AUC), total body clearance (Cl), volume of distribution at steady state (Vss) and the terminal half-life (t1/2).

[6] = BGC9331 plasma pharmacokinetics by ELISA in phase I patients; settings: for Median Cmax / Median plasma clearance: ±s.d.; for AUClast / Cl_obs / Cmax / HL_Lambda_z / Vz_obs: BGC9331 65 mg m^−2, carboplatin AUC 5
Method: as §1, §2, §3

[7] = system: human ovarian tumour cell lines; settings: ref Kelland et al, 1995; cited from earlier work
[8] = system: folyl-polyglutamate synthase (FPGS); design: method as in Jackman et al, 1993; settings: compared to RTX; ref Jackman et al, 1993; cited from earlier work
[9] = Carboplatin pharmacokinetics by flameless atomic absorption spectrophotometry (FAAS); settings: free carboplatin, carboplatin AUC 5 with BGC9331
Method: Carboplatin was measured by FAAS. This method has been previously described ([LeRoy et al, 1977]). Samples were analysed on a Perkin-Elmer HGA800, AA300 Flameless atomic absorption spectrophotometer, and a Platinum Lumina HCC lamp (Perkin-Elmer, Beaconsfield, UK).
Calibration standards were prepared individually for each assay batch by adding Carboplatin standards to control human plasma and ultrafiltrate. A blank was made using either plasma or ultrafiltrate only. A range of standards was made ranging from 5 to 50 ng ml^−1 Pt (plasma samples) to 10–150 ng ml^−1 Pt (ultrafiltrates).
For plasma analysis, three QCs were included in duplicate, ranging from low (15ng ml^−1 Pt) to medium (25 ng ml^−1 Pt) and high (45 ng ml^−1 Pt), by diluting stock solutions with plasma. For ultrafiltrate analysis low (20 ng ml^−1 Pt), medium (60 ng ml^−1 Pt) and high (120 ng ml^−1 Pt) QCs and stock solutions were diluted with plasma ultrafiltrate. A run was acceptable if four out of six QCs were within 15% of nominal concentration.

[10] = dose level 1 (BGC9331 40 mg m^−2, carboplatin AUC 5), day 1
[11] = dose level 1 (BGC9331 40 mg m^−2, carboplatin AUC 5), day 8
[12] = dose level 2 (BGC9331 65 mg m^−2, carboplatin AUC 5), day 1
[13] = dose level 2 (BGC9331 65 mg m^−2, carboplatin AUC 5), day 8

For O=c1[nH]cc(F)c(=O)[nH]1 [5-FU, 5-fluorouracil], the response rate ([1]; ref Look et al, 1995) is given as 14%, the “peak dUrd elevation” value ([2]; bolus 5-FU) is given as 235±125% and the “peak dUrd elevation” value ([2]; infusional 5-FU) is given as 228±86%.

For C#CCN(Cc1cc2c(=O)[nH]c(C)nc2cc1C)c1ccc(C(=O)N[C@@H](CCc2nnn[nH]2)C(=O)O)c(F)c1 [BGC9331], the AUC ([3]; BGC9331 monotherapy 42 mg m^−2) is given as 176 µg·h/mL, the Cmax ([3]; BGC9331 monotherapy 42 mg m^−2) is given as 10400 ng/mL and the AUC ([3]; BGC9331 monotherapy 69 mg m^−2) is given as 322 µg·h/mL. For the same compound, the Cmax ([3]; BGC9331 monotherapy 69 mg m^−2) was 19100 ng/mL, the “patients with grade 3 or 4 neutropaenia” value ([4]; BGC9331 130 mg m^−2 days 1 and 8 with cisplatin 75 mg m^−2, ref Bilenker et al, 2004) was “three of the four” and the “patients affected by diarrhoea” value ([4]; previous studies, ref Rader et al, 2003) was 36%. The “recommended single-agent phase II dose” value ([4]; ref Plummer et al, 2003) was 130 mg m^−2, the AUC ([5]; 40 mg) was 110 µg·h/mL and the Cmax ([5]; 40 mg) was 7260 ng/mL. For the same compound, the AUC ([5]; 65 mg) was 140 µg·h/mL, the Cmax ([5]; 65 mg) was 10400 ng/mL and the Tmax ([5]; 65 mg) was 30 min. The “Median Cmax” value [6, 10] was 11200 ± 2500 ng/mL and 11210 ng/mL, the Median plasma clearance [6, 10] was 478 ± 61 mL/h and the “Median Cmax” value [6, 11] was 7300 ± 5000 ng/mL. The Median plasma clearance [6, 11] was 971 ± 265 mL/h, the “Median Cmax” value [6, 12] was 16500 ± 2400 ng/mL and 16540 ng/mL and the Median plasma clearance [6, 12] was 1197 ± 580 mL/h. For the same compound, the “Median Cmax” value [6, 13] was 10400 ± 4000 ng/mL, the Median plasma clearance [6, 13] was 746 ± 584 mL/h and the AUClast ([6]; patient 4, administration 1) was 90.4 µg·mL/h. For the same compound, the Cl_obs ([6]; patient 4, administration 1) was 1197.5 mL/h, the Cmax ([6]; patient 4, administration 1) was 16800 ng/mL and the HL_Lambda_z ([6]; patient 4, administration 1) was 18.2 h. For the same compound, the Vz_obs ([6]; patient 4, administration 1) was 31423.8 mL, the AUClast ([6]; patient 4, administration 2) was 68.4 µg·mL/h and the Cl_obs ([6]; patient 4, administration 2) was 1646.5 mL/h. For the same compound, the Cmax ([6]; patient 4, administration 2) was 10400 ng/mL, the HL_Lambda_z ([6]; patient 4, administration 2) was 27.8 h and the Vz_obs ([6]; patient 4, administration 2) was 66088.6 mL. For the same compound, the AUClast ([6]; patient 5, administration 1) was 264.6 µg·mL/h, the Cl_obs ([6]; patient 5, administration 1) was 378.4 mL/h and the Cmax ([6]; patient 5, administration 1) was 16600 ng/mL. The HL_Lambda_z ([6]; patient 5, administration 1) was 25.5 h, the Vz_obs ([6]; patient 5, administration 1) was 13891.3 mL and the AUClast ([6]; patient 5, administration 2) was 193.3 µg·mL/h. It also gave a Cl_obs ([6]; patient 5, administration 2) of 549.2 mL/h, a Cmax ([6]; patient 5, administration 2) of 16700 ng/mL and a Vz_obs ([6]; patient 5, administration 2) of 17208.1 mL. The AUClast ([6]; patient 6, administration 2) was 141.3 µg·mL/h, the Cl_obs ([6]; patient 6, administration 2) was 746.0 mL/h and the Cmax ([6]; patient 6, administration 2) was 9300 ng/mL. For the same compound, the HL_Lambda_z ([6]; patient 6, administration 2) was 28.1 h and the Vz_obs ([6]; patient 6, administration 2) was 30257.3 mL.

For C#CCN(Cc1ccc2nc(N)[nH]c(=O)c2c1)c1ccc(C(=O)N[C@@H](CCC(=O)O)C(=O)O)cc1 [CB3717, N10-propargyl-5,8-dideazafolic acid], the “cross-resistance to platinum-based agents” value [7] is listed as “non crossresistance” and the “substrate for FPGS” value [8] is listed as “relatively poor substrate”.

With N.N.O=C([O-])C1(C(=O)[O-])CCC1.[Pt+2] [carboplatin] the Alpha_HL ([9]; patient 1, dose level 1) was 2.2 h, the Beta_HL ([9]; patient 1, dose level 1) was 50.3 h and the CL ([9]; patient 1, dose level 1) was 8.7 L/h. It also gave a V2 ([9]; patient 1, dose level 1) of 91.2 L, a Vss ([9]; patient 1, dose level 1) of 123.3 L and an Alpha_HL ([9]; patient 3, dose level 1) of 1.2 h. For the same compound, the Beta_HL ([9]; patient 3, dose level 1) was 8.2 h, the CL ([9]; patient 3, dose level 1) was 4.8 L/h and the V2 ([9]; patient 3, dose level 1) was 15.1 L. The Vss ([9]; patient 3, dose level 1) was 27.1 L, the Alpha_HL ([9]; patient 4, dose level 2) was 2.4 h and the Beta_HL ([9]; patient 4, dose level 2) was 100.9 h. For the same compound, the CL ([9]; patient 4, dose level 2) was 7.0 L/h, the V2 ([9]; patient 4, dose level 2) was 158.5 L and the Vss ([9]; patient 4, dose level 2) was 186.5 L. For the same compound, the Alpha_HL ([9]; patient 5, dose level 2) was 1.5 h, the Beta_HL ([9]; patient 5, dose level 2) was 92.0 h and the CL ([9]; patient 5, dose level 2) was 6.0 L/h. It also gave a V2 ([9]; patient 5, dose level 2) of 101.0 L, a Vss ([9]; patient 5, dose level 2) of 115.6 L and an Alpha_HL ([9]; patient 6, dose level 2) of 1.8 h. The Beta_HL ([9]; patient 6, dose level 2) was 60.4 h, the CL ([9]; patient 6, dose level 2) was 6.7 L/h and the V2 ([9]; patient 6, dose level 2) was 88.9 L. The Vss ([9]; patient 6, dose level 2) was 109.7 L, the Alpha_HL ([9]; patient 14, dose level 3) was 0.4 h and the Beta_HL ([9]; patient 14, dose level 3) was 2.6 h. For the same compound, the CL ([9]; patient 14, dose level 3) was 6.1 L/h, the V2 ([9]; patient 14, dose level 3) was 8.6 L and the Vss ([9]; patient 14, dose level 3) was 16.5 L.

In the case of Cc1nc2ccc(CN(C)c3ccc(C(=O)N[C@@H](CCC(=O)O)C(=O)O)s3)cc2c(=O)[nH]1 [raltitrexed], the response rate ([1]; ref Gore et al, 1995) is listed as 7%, the response rate ([1]; ref Muggia et al, 1998) is listed as 11% and the “day on which dUrd reapproaches baseline” value ([2]; RTX on a 21-day cycle) is listed as ~15 days. The “peak percentage rise of dUrd” value ([2]; RTX on a 21-day cycle) was 349±128% and the “cross-resistance to platinum-based agents” value [7] was “non crossresistance”.
